Results published in patent US20110070232A1, “Combination Therapy with an Antitumor Alkaloid” (Pharma Mar, S.A., priority 2008, published 2011).
pIC50: −log10 of the molar value. Where two headings read alike, the source gives them in different places.

Key:
[1] = test system: BxPC-3 tumors; assay type: in vivo, mice; conditions: mg/kg/day: PM00104 0.90 IV
Experimental: Female CB17.SCID mice (Charles River Lab.) were utilized for all experiments. Animals were housed in ventilated rack caging with food and water ad libitum. The mice were acclimated for at least 5 days prior to tumor implantation with a tumor cell suspension.
The tumor model used in these studies was BxPC-3 cell line, which was obtained from the ATCC (Manassas, Va.).
Treatments were initiated on DPI 9.
(§1) Tumor size measurements were recorded twice weekly from the treatment initiation until the termination of the study.
(§2) Mean, standard deviation and standard error of the mean were determined for tumor volume for all animal groups at all assessments. Student's t test was performed on tumor volumes at each measurement day, including at the end of the study, to determine whether there were any statistically significant differences between combination treatment groups and single monotherapy treatment groups.

[2] = test system: MRI-H-254 tumors; assay type: in vivo, mice
Experimental: Female athymic nude mice (Harlan Sprague Dawley, Madison, Wis.) were utilized for all experiments. Animals were housed in ventilated rack caging with food and water ad libitum. The mice were acclimated for at least 5 days prior to tumor implantation with tumor fragments.
Treatments were initiated on DPI 16.
as §1, §2

[3] = test system: BT-474 (breast cancer) cell line; assay: IC50 determination, MIT (tetrazolium) assay, 72 h (Example 18); assay type: cell-based; conditions: Homo sapiens, BT-474, 72 h
Experimental: BT-474 cells were grown in RPMI supplemented with 1% ITS (insulin, transferrin and selenium), 10% Fetal Bovine Serum (FBS), 1% penicillin/streptomycin and 2 mM L-glutamine.
(§3) Before plating, cell cultures were trypsinized and cell number estimated using an automated flow cytometer.
(§4) Cells were harvested and seeded in 96 well microtiter plates at the appropriate cell density (5,000-10,000 cells) in 150 μL of media and incubated for 24 hours to allow the cells to attach before drug addition.
(§5) After the incubation period (72 hours), 50 μL of MIT solution was added to each microtiter well and incubated for further 8 hours at 37° C. The culture medium was then removed and 50 μl, of DMSO were added to dissolve the MIT crystals. Optical densities were read at 540 nm on spectrophotometer microplate reader.
(§6) IC50 values were calculated from an average of two to four assays for each of the test agents.

[4] = test system: PANC-1 human pancreatic carcinoma cell line; assay: IC50 determination, MTS assay, 72 h (Example 3); assay type: cell-based; conditions: 72 hours of drug exposure
Experimental: (§7) Gemcitabine (Gemzar®) was the agent evaluated in combination with PM00104. The human pancreatic carcinoma cell lines selected for this assay were the following: BxPC-3, PANC-1, MIA PaCA-2, and SW1990 cell lines. BxPC-3 cell line was grown in RPMI 1640 medium supplemented with 10% FBS, 1.5 g/L sodium bicarbonate, 4.5 g/L glucose, 10 mM HEPES, 1 mM sodium pyruvate, and 2 mM L-glutamine. PANC-1 cell line was grown in DMEM supplemented with 10% FBS, 1.5 g/L sodium bicarbonate, 4.5 g/L glucose, and 4 mM L-glutamine. MIA PaCA-2 cell line was grown in DMEM supplemented with 10% FBS, 1.5 g/L sodium bicarbonate, 4.5 g/L glucose, 2.5% Horse Serum, and 2 mM L-glutamine. SW1990 cell line was grown in RPMI 1640 medium supplemented with 10% FBS and 2 mM L-glutamine.
(§8) a. […] It was used the same methodology as those disclosed in Example 1.
(§9) IC50 values were calculated from an average of three assays for each of the test agents.

[5] = test system: BxPC-3 human pancreatic carcinoma cell line; assay: IC50 determination, MTS assay, 72 h (Example 3); assay type: cell-based; conditions: 72 hours of drug exposure
Experimental: as §7, §8, §9

[6] = test system: SW1990 human pancreatic carcinoma cell line; assay: IC50 determination, MTS assay, 72 h (Example 3); assay type: cell-based; conditions: 72 hours of drug exposure
Experimental: as §7, §8, §9

[7] = test system: MIA PaCA-2 human pancreatic carcinoma cell line; assay: IC50 determination, MTS assay, 72 h (Example 3); assay type: cell-based; conditions: 72 hours of drug exposure
Experimental: as §7, §8, §9

[8] = test system: HCT-116 (colon cancer) cell line; assay: IC50 determination, MIT (tetrazolium) assay, 72 h (Example 18); assay type: cell-based, human; conditions: Homo sapiens; HCT-116, 72 hours of drug exposure
Experimental: HCT-116 cells were grown in McCoy's supplemented with 10% Fetal Bovine Serum (FBS), 1% penicillin/streptomycin and 2 mM L-glutamine.
as §3, §4, §5, §6

[9] = day 16, PM00104 0.90, cisplatin 3, irinotecan 10, paclitaxel 12.5 mg/kg/day
[10] = day 16, PM00104 0.90, cisplatin 5, irinotecan 18, paclitaxel 25 mg/kg/day
[11] = day 20, PM00104 0.90, cisplatin 3, irinotecan 10, paclitaxel 12.5 mg/kg/day
[12] = day 20, PM00104 0.90, cisplatin 5, irinotecan 18, paclitaxel 25 mg/kg/day
[13] = day 23, PM00104 0.90, cisplatin 3, irinotecan 10, paclitaxel 12.5 mg/kg/day
[14] = day 23, PM00104 0.90, cisplatin 5, irinotecan 18, paclitaxel 25 mg/kg/day
[15] = day 26, PM00104 0.90, cisplatin 3, irinotecan 10, paclitaxel 12.5 mg/kg/day
[16] = day 26, PM00104 0.90, cisplatin 5, irinotecan 18, paclitaxel 25 mg/kg/day
[17] = day 29, PM00104 0.90, cisplatin 3, irinotecan 10, paclitaxel 12.5 mg/kg/day
[18] = day 29, PM00104 0.90, cisplatin 5, irinotecan 18, paclitaxel 25 mg/kg/day
[19] = day 33, PM00104 0.90, cisplatin 3, irinotecan 10, paclitaxel 12.5 mg/kg/day
[20] = day 33, PM00104 0.90, cisplatin 5, irinotecan 18, paclitaxel 25 mg/kg/day
[21] = day 40, PM00104 0.90, cisplatin 3, irinotecan 10, paclitaxel 12.5 mg/kg/day
[22] = day 40, PM00104 0.90, cisplatin 5, irinotecan 18, paclitaxel 25 mg/kg/day
[23] = day 48, PM00104 0.90, cisplatin 3, irinotecan 10, paclitaxel 12.5 mg/kg/day
[24] = day 48, PM00104 0.90, cisplatin 5, irinotecan 18, paclitaxel 25 mg/kg/day

C#Cc1cccc(Nc2ncnc3cc(OCCOC)c(OCCOC)cc23)c1 [erlotinib]
% Inhibition ([1]; day 9, erlotinib 15 PO): 0.5% | % T/C on day ([1]; day 9, erlotinib 15 PO): 99.5% | % Inhibition ([1]; day 9, erlotinib 30 PO): −4.2% | % T/C on day ([1]; day 9, erlotinib 30 PO): 104.2% | % Inhibition ([1]; day 9, erlotinib 50 PO): −2.5% | % T/C on day ([1]; day 9, erlotinib 50 PO): 102.5% | % Inhibition ([1]; day 12, erlotinib 15 PO): 24.1% | % T/C on day ([1]; day 12, erlotinib 15 PO): 75.9% | % Inhibition ([1]; day 12, erlotinib 30 PO): 15.1% | % T/C on day ([1]; day 12, erlotinib 30 PO): 84.9% | % Inhibition ([1]; day 12, erlotinib 50 PO): 15.1% | % T/C on day ([1]; day 12, erlotinib 50 PO): 84.9% | % Inhibition ([1]; day 15, erlotinib 15 PO): 7.8% | % T/C on day ([1]; day 15, erlotinib 15 PO): 92.2% | % Inhibition ([1]; day 15, erlotinib 30 PO): −5.8% | % T/C on day ([1]; day 15, erlotinib 30 PO): 105.8% | % Inhibition ([1]; day 15, erlotinib 50 PO): −14.2% | % T/C on day ([1]; day 15, erlotinib 50 PO): 114.2% | % Inhibition ([1]; day 19, erlotinib 15 PO): 21.0% | % T/C on day ([1]; day 19, erlotinib 15 PO): 79.0% | % Inhibition ([1]; day 19, erlotinib 30 PO): 6.5% | % T/C on day ([1]; day 19, erlotinib 30 PO): 93.5% | % Inhibition ([1]; day 19, erlotinib 50 PO): −2.6% | % T/C on day ([1]; day 19, erlotinib 50 PO): 102.6% | % Inhibition ([1]; day 21, erlotinib 15 PO): 33.8% | % T/C on day ([1]; day 21, erlotinib 15 PO): 66.2% | % Inhibition ([1]; day 21, erlotinib 30 PO): 16.3% | % T/C on day ([1]; day 21, erlotinib 30 PO): 83.7% | % Inhibition ([1]; day 21, erlotinib 50 PO): 15.5% | % T/C on day ([1]; day 21, erlotinib 50 PO): 84.5% | % Inhibition ([1]; day 26, erlotinib 15 PO): 7.5% | % T/C on day ([1]; day 26, erlotinib 15 PO): 92.5% | % Inhibition ([1]; day 26, erlotinib 30 PO): −14.2% | % T/C on day ([1]; day 26, erlotinib 30 PO): 114.2% | % Inhibition ([1]; day 26, erlotinib 50 PO): 9.0% | % T/C on day ([1]; day 26, erlotinib 50 PO): 91.0% | % Inhibition ([1]; day 29, erlotinib 15 PO): 16.2% | % T/C on day ([1]; day 29, erlotinib 15 PO): 83.8% | % Inhibition ([1]; day 29, erlotinib 30 PO): 15.2% | % T/C on day ([1]; day 29, erlotinib 30 PO): 84.8% | % Inhibition ([1]; day 29, erlotinib 50 PO): 40.7% | % T/C on day ([1]; day 29, erlotinib 50 PO): 59.3% | % Inhibition ([1]; day 33, erlotinib 15 PO): 7.9% | % T/C on day ([1]; day 33, erlotinib 15 PO): 92.1% | % Inhibition ([1]; day 33, erlotinib 30 PO): 13.0% | % T/C on day ([1]; day 33, erlotinib 30 PO): 87.0% | % Inhibition ([1]; day 33, erlotinib 50 PO): 12.1% | % T/C on day ([1]; day 33, erlotinib 50 PO): 87.9% | % Inhibition ([1]; day 40, erlotinib 15 PO): 18.8% | % T/C on day ([1]; day 40, erlotinib 15 PO): 81.2% | % Inhibition ([1]; day 40, erlotinib 30 PO): 14.5% | % T/C on day ([1]; day 40, erlotinib 30 PO): 85.5% | % Inhibition ([1]; day 40, erlotinib 50 PO): 15.4% | % T/C on day ([1]; day 40, erlotinib 50 PO): 84.6%

N.N.[Cl][Pt][Cl] [Cisplatin, cisplatin]
% Inhibition [2, 9]: 1.6% | % T/C [2, 9]: 98.4% | % Inhibition [2, 10]: −0.5% | % T/C [2, 10]: 100.5% | % Inhibition [2, 11]: 6.6% | % T/C [2, 11]: 93.4% | % Inhibition [2, 12]: 2.2% | % T/C [2, 12]: 97.8% | % Inhibition [2, 13]: 17.0% | % T/C [2, 13]: 83.0% | % Inhibition [2, 14]: 24.7% | % T/C [2, 14]: 75.3% | % Inhibition [2, 15]: 18.5% | % T/C [2, 15]: 81.5% | % Inhibition [2, 16]: 40.1% | % T/C [2, 16]: 59.9% | % Inhibition [2, 17]: 27.0% | % T/C [2, 17]: 73.0% | % Inhibition [2, 18]: 45.7% | % T/C [2, 18]: 54.3% | % Inhibition [2, 19]: 31.4% | % T/C [2, 19]: 68.6% | % Inhibition [2, 20]: 60.5% | % T/C [2, 20]: 39.5% | % Inhibition [2, 21]: 44.7% | % T/C [2, 21]: 55.3% | % Inhibition [2, 22]: 76.2% | % T/C [2, 22]: 23.8% | % Inhibition [2, 23]: 50.8% | % T/C [2, 23]: 49.2% | % Inhibition [2, 24]: 82.9% | % T/C [2, 24]: 17.1%

CC(=O)O[C@H]1C(=O)[C@@]2(C)[C@H]([C@H](OC(=O)c3ccccc3)[C@]3(O)C[C@H](OC(=O)[C@H](O)[C@@H](NC(=O)c4ccccc4)c4ccccc4)C(C)=C1C3(C)C)[C@]1(OC(C)=O)CO[C@@H]1C[C@@H]2O [paclitaxel]
pIC50 [3]: 8.77

Nc1ccn([C@@H]2O[C@H](CO)[C@@H](O)C2(F)F)c(=O)n1 [Gemcitabine, gemcitabine]
IC50 [4]: 110 mg/L | IC50 [5]: 0.84 mg/L | IC50 [6]: 0.012 mg/L | IC50 [7]: 0.079 mg/L

O=c1[nH]cc(F)c(=O)[nH]1 [5-FU, 5-fluorouracil]
pIC50 [8]: 5.22
